# Assay results taken from US9763957B2, “Autotaxin inhibitors” (Novartis AG, priority 2013, dated 2017).
# Biological target: Recombinant human ATX (Homo sapiens (Human), UniProt Q13822)
# Test: ATX inhibition assay (choline release, Amplex Red fluorescence)
# Assay type: biochemical
# Conditions: ATX 10 nM, LPC 18:1 10 μM, 37° C., 20 min pre-incubation; mean of n≧2
# Summary of the method: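 Activity was taken from the slope of resorufin fluorescence (530/590 nm, read every 2 min for 40 min at 37 °C) produced by choline liberated from 10 μM oleoyl LPC.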
row,SMILES,IC50 [nM]
1,"Cc1ccc(/C=C/C(=O)N2CCC(Cc3nnc(C)o3)CC2)c(Cn2nnc(C)n2)c1 [Example 72, (E)-1-(4-((5-Methyl-1,3,4-oxadiazol-2-yl)methyl)piperidin-1-yl)-3-(4-methyl-2-((5-methyl-2H-tetrazol-2-yl)methyl)phenyl)prop-2-en-1-one]",290
2,"Cc1nnn(Cc2cc(C(F)(F)F)ccc2/C=C/C(=O)N2CCC(C(=O)O)CC2)n1 [Example 51, (E)-1-(3-(2-((5-Methyl-2H-tetrazol-2-yl)methyl)-4-(trifluoromethyl)phenyl)acryloyl)piperidine-4-carboxylic acid]",77
3,"CC(=O)N1CCCN(C(=O)/C=C/c2ccc(Cl)cc2Cn2nnc(C)n2)CC1 [Example 49.26, (E)-1-(4-Acetyl-1,4-diazepan-1-yl)-3-(4-chloro-2-((5-methyl-2H-tetrazol-2-yl)methyl)phenyl)prop-2-en-1-one]",160
4,"Cc1nnn(Cc2cc(Cl)ccc2/C=C/C(=O)N2CCC(c3coc(C)n3)CC2)n1 [Example 27, (E)-3-(4-Chloro-2-((5-methyl-2H-tetrazol-2-yl)methyl)phenyl)-1-(4-(2-methyloxazol-4-yl)piperidin-1-yl)prop-2-en-1-one]",59
5,"Cc1nnn(Cc2cc(Cl)ccc2/C=C/C(=O)N2CC[C@@H](c3nnc(C)o3)C2)n1 [Example 7, (R,E)-3-(4-Chloro-2-((5-methyl-2H-tetrazol-2-yl)methyl)phenyl)-1-(3-(5-methyl-1,3,4-oxadiazol-2-yl)pyrrolidin-1-yl)prop-2-en-1-one]",140
6,"Cc1nnn(Cc2cc(Cl)ccc2/C=C/C(=O)N2CCC(c3nnc(CN4CCCCC4)o3)CC2)n1 [Example 122, (E)-3-(4-Chloro-2-((5-methyl-2H-tetrazol-2-yl)methyl)phenyl)-1-(4-(5-(piperidin-1-ylmethyl)-1,3,4-oxadiazol-2-yl)piperidin-1-yl)prop-2-en-1-one]",58
7,"Cc1nnn(Cc2cc(Cl)ccc2/C=C/C(=O)N2CCC(O)C[C@@H]2C)n1 (single isomer, unassigned) [Example 50a, (E)-3-(4-chloro-2-((5-methyl-2H-tetrazol-2-yl)methyl)phenyl)-1-((2S, 4R or 4S)-4-hydroxy-2-methylpiperidin-1-yl)prop-2-en-1-one]",70
8,"Cc1noc(C2CCCCN2C(=O)/C=C/c2ccc(Cl)cc2Cn2nnc(C)n2)n1 (racemic) [Example 23, (rac)-(E)-3-(4-Chloro-2-((5-methyl-2H-tetrazol-2-yl)methyl)phenyl)-1-(2-(3-methyl-1,2,4-oxadiazol-5-yl)piperidin-1-yl)prop-2-en-1-one]",28
9,"Cc1cn(C2CCN(C(=O)/C=C/c3ccc(Cl)cc3Cn3nnc(C)n3)CC2)nn1 [Example 9, (E)-3-(4-Chloro-2-((5-methyl-2H-tetrazol-2-yl)methyl)phenyl)-1-(4-(4-methyl-1H-1,2,3-triazol-1-yl)piperidin-1-yl)prop-2-en-1-one]",100
10,"Cc1nnn(Cc2ccc(F)cc2/C=C/C(=O)N2CCC(Cc3nnc(C)o3)CC2)n1 [Example 79, (E)-3-(5-Fluoro-2-((5-methyl-2H-tetrazol-2-yl)methyl)phenyl)-1-(4-((5-methyl-1,3,4-oxadiazol-2-yl)methyl)piperidin-1-yl)prop-2-en-1-one]",3140
11,"Cc1nnn(Cc2cc(Cl)ccc2/C=C/C(=O)N2CCC(O)(Cn3cc(C(F)(F)F)cn3)CC2)n1 [Example 18, (E)-3-(4-Chloro-2-((5-methyl-2H-tetrazol-2-yl)methyl)phenyl)-1-(4-hydroxy-4-((4-(trifluoromethyl)-1H-pyrazol-1-yl)methyl)piperidin-1-yl)prop-2-en-1-one]",37
12,"Cc1nnn(Cc2cc(Cl)ccc2/C=C/C(=O)N2CCN(c3ncccc3C(=O)N3CCCC3)CC2)n1 [Example 49.29, (E)-3-(4-Chloro-2-((5-methyl-2H-tetrazol-2-yl)methyl)phenyl)-1-(4-(3-(pyrrolidine-1-carbonyl)pyridin-2-yl)piperazin-1-yl)prop-2-en-1-one]",78
13,"CC(=O)C1CCCN(C(=O)/C=C/c2ccc(Cl)cc2Cn2nnc(C)n2)C1 (stereo not drawn) [Example 49.15, (E)-1-(3-Acetylpiperidin-1-yl)-3-(4-chloro-2-((5-methyl-2H-tetrazol-2-yl)methyl)phenyl)prop-2-en-1-one]",127
14,"Cc1nnc(Cc2cc(Cl)ccc2/C=C/C(=O)N2CCC(Cc3nnc(C)o3)CC2)o1 [Example 13, (E)-3-(4-Chloro-2-((5-methyl-1,3,4-oxadiazol-2-yl)methyl)phenyl)-1-(4-((5-methyl-1,3,4-oxadiazol-2-yl)methyl)piperidin-1-yl)prop-2-en-1-one]",2360
15,"Cc1nnn(Cc2cc(Cl)ccc2COC(=O)N2CCC(c3nnc(C)o3)CC2)n1 [Example 47, 4-Chloro-2-((5-methyl-2H-tetrazol-2-yl)methyl)benzyl 4-(5-methyl-1,3,4-oxadiazol-2-yl)piperidine-1-carboxylate]",442

# Now those with a lower IC50, led by results:
row,IC50 [nM],SMILES
1,14,"Cc1nnn(Cc2cc(Cl)ccc2/C=C/C(=O)N2CCC(Cn3cccn3)CC2)n1 [Example 49.11, (E)-1-(4-((1H-Pyrazol-1-yl)methyl)piperidin-1-yl)-3-(4-chloro-2-((5-methyl-2H-tetrazol-2-yl)methyl)phenyl)prop-2-en-1-one]"
2,13,"Cc1nnn(Cc2cc(Cl)ccc2/C=C/C(=O)N2CCC(CCNC(=O)c3c[nH]nn3)CC2)n1 [Example 145, (E)-N-(2-(1-(3-(4-Chloro-2-((5-methyl-2H-tetrazol-2-yl)methyl)phenyl)acryloyl)piperidin-4-yl)ethyl)-1H-1,2,3-triazole-4-carboxamide]"
3,12,"Cc1nnn(Cc2cc(Cl)ccc2/C=C/C(=O)N2CCC(c3nnc(CN4CCOCC4)o3)CC2)n1 [Example 134, (E)-3-(4-Chloro-2-((5-methyl-2H-tetrazol-2-yl)methyl)phenyl)-1-(4-(5-(morpholinomethyl)-1,3,4-oxadiazol-2-yl)piperidin-1-yl)prop-2-en-1-one]"
4,12,"Cc1nnn(Cc2cc(OC(F)(F)F)ccc2/C=C/C(=O)N2CCC(Cc3nnc(C)o3)CC2)n1 [Example 56, (E)-1-(4-((5-Methyl-1,3,4-oxadiazol-2-yl)methyl)piperidin-1-yl)-3-(2-((5-methyl-2H-tetrazol-2-yl)methyl)-4-(trifluoromethoxy)phenyl)prop-2-en-1-one]"
5,11,"Cc1nnn(Cc2cc(Cl)ccc2/C=C/C(=O)N2CCC(O)(Cn3cc(C(=O)N4CCCCC4)cn3)CC2)n1 [Example 16, (E)-3-(4-Chloro-2-((5-methyl-2H-tetrazol-2-yl)methyl)phenyl)-1-(4-hydroxy-4-((4-(piperidine-1-carbonyl)-1H-pyrazol-1-yl)methyl)piperidin-1-yl)prop-2-en-1-one]"
6,11,"Cc1nnn(Cc2cc(Cl)ccc2/C=C/C(=O)N2CCC(c3nnc(CC(F)(F)F)o3)CC2)n1 [Example 141, (E)-3-(4-Chloro-2-((5-methyl-2H-tetrazol-2-yl)methyl)phenyl)-1-(4-(5-(2,2,2-trifluoroethyl)-1,3,4-oxadiazol-2-yl)piperidin-1-yl)prop-2-en-1-one]"
7,10,"Cc1nnn(Cc2cc(Cl)ccc2/C=C/C(=O)N2CCCN(c3ncccn3)CC2)n1 [Example 49.25, (E)-3-(4-Chloro-2-((5-methyl-2H-tetrazol-2-yl)methyl)phenyl)-1-(4-(pyrimidin-2-yl)-1,4-diazepan-1-yl)prop-2-en-1-one]"
8,9.5,"Cc1noc(C2CCCCN2C(=O)/C=C/c2ccc(Cl)cc2Cn2nnc(C)n2)n1 (single isomer, unassigned) [Example 23a, (R)- or (S)-(E)-3-(4-Chloro-2-((5-methyl-2H-tetrazol-2-yl)methyl)phenyl)-1-(2-(3-methyl-1,2,4-oxadiazol-5-yl)piperidin-1-yl)prop-2-en-1-one]"
9,8.8,"Cc1nnn(Cc2cc(Cl)ccc2/C=C/C(=O)N2CCN(Cc3cnc(N4CCOCC4)nc3)CC2)n1 [Example 140.8, (E)-3-(4-Chloro-2-((5-methyl-2H-tetrazol-2-yl)methyl)phenyl)-1-(4-((2-morpholinopyrimidin-5-yl)methyl)piperazin-1-yl)prop-2-en-1-one]"
10,8,"Cc1nnn(Cc2cc(C(F)(F)F)ccc2/C=C/C(=O)N2CCC(c3nnc(C)o3)CC2)n1 [Example 57, (E)-1-(4-(5-Methyl-1,3,4-oxadiazol-2-yl)piperidin-1-yl)-3-(2-((5-methyl-2H-tetrazol-2-yl)methyl)-4-(trifluoromethyl)phenyl)prop-2-en-1-one]"
11,6.9,"Cc1nnn(Cc2cc(C(F)(F)F)ccc2/C=C/C(=O)N2CCCC[C@H]2C(F)(F)F)n1 [Example 121, (S,E)-3-(2-((5-Methyl-2H-tetrazol-2-yl)methyl)-4-(trifluoromethyl)phenyl)-1-(2-(trifluoromethyl)piperidin-1-yl)prop-2-en-1-one]"
12,6.9,"CCOc1c(NCCC2CN(C(=O)/C=C/c3ccc(Cl)cc3Cn3nnc(C)n3)CCO2)c(=O)c1=O (stereo not drawn) [Example 150, (E)-3-((2-(4-(3-(4-Chloro-2-((5-methyl-2H-tetrazol-2-yl)methyl)phenyl)acryloyl)morpholin-2-yl)ethyl)amino)-4-ethoxycyclobut-3-ene-1,2-dione]"
13,5.8,"Cc1nnn(Cc2cc(C(F)(F)F)ccc2/C=C/C(=O)N2CCC(c3noc(C)n3)CC2)n1 [Example 4, (E)-1-(4-(5-Methyl-1,2,4-oxadiazol-3-yl)piperidin-1-yl)-3-(2-((5-methyl-2H-tetrazol-2-yl)methyl)-4-(trifluoromethyl)phenyl)prop-2-en-1-one]"
14,4.9,"Cc1nnn(Cc2cc(Cl)ccc2/C=C/C(=O)N2CCN(C3CCN(C(=O)c4c[nH]nn4)CC3)CC2)n1 [Example 149, (E)-1-(4-(1-(1H-1,2,3-Triazole-4-carbonyl)piperidin-4-yl)piperazin-1-yl)-3-(4-chloro-2-((5-methyl-2H-tetrazol-2-yl)methyl)phenyl)prop-2-en-1-one]"
15,3.6,"CCc1nnc(C2CCN(C(=O)/C=C/c3ccc(C(F)(F)F)cc3Cn3nnc(C)n3)CC2)o1 [Example 92, (E)-1-(4-(5-Ethyl-1,3,4-oxadiazol-2-yl)piperidin-1-yl)-3-(2-((5-methyl-2H-tetrazol-2-yl)methyl)-4-(trifluoromethyl)phenyl)prop-2-en-1-one]"
